Twelve molecules from ChEMBL document CHEMBL1201862, “PubChem BioAssay data set” (2004) can be followed below.

Among the test systems are M14; HT-29; NCI-H460; OVCAR-3; A549; 786-0; UACC-62; ACHN; SNB-75; SNB-19; EKVX; K562; U-251; MDA-MB-435; SF-268; OVCAR-5; NCI-H226; NCI/ADR-RES; NCI-H522.
Common to all, as to assay: inhibition of tumour cell growth, NCI panel, 48 h

Structures are written as SMILES.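 Cells were grown in 96-well plates and exposed to each compound for 48 hours at five concentrations; endpoints were interpolated linearly between bracketing concentrations, or set to the highest concentration if not reached. The concentration for 50% growth inhibition is given as GI50.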 Activity calls are given as the source filed them. Cut-off read from the data, not from the text of the source: active = GI50 up to about 1.1 µM and inactive = higher.

For `CC(C)(C)c1cc(C2c3cc4c(cc3OC(O)(CO)C2C(=O)O)OCO4)cc(C(C)(C)C)c1O.CC(C)(C)c1cc(C2c3cc4c(cc3OC3(O)COC(=O)C23)OCO4)cc(C(C)(C)C)c1O` (stereo not given), the GI50 with M14 is 14.7 µM (inactive); in the assay on HT-29 it was 13.5 µM (inactive); in the assay with NCI-H460, 14.7 µM (inactive); with OVCAR-3 it was 5.36 µM (inactive); in the assay with A549, 18.7 µM (inactive); in the assay on 786-0, 16.6 µM (inactive). The GI50 in the assay with UACC-62 was 5 µM (inactive); in the assay with ACHN it was 14.8 µM (inactive); with SNB-75, 10.1 µM (inactive); in the assay with SNB-19, 12.9 µM (inactive); in the assay on EKVX it was 22.5 µM (inactive); in the assay on K562, 7.67 µM (inactive). Moreover, in the assay on U-251, the GI50 is 14.5 µM (inactive).

As to `C(#C[C@@]12CCC[C@@H]1N(Cc1ccccc1)CO2)c1ccc2c(c1)OCO2`, the GI50 in the assay with M14, with HT-29, in the assay on MDA-MB-435, in the assay on NCI-H460, with OVCAR-3 and in the assay with A549 was > 100 µM (inactive) each time. Besides, the GI50 in the assay with SF-268, in the assay with OVCAR-5, in the assay on 786-0, with NCI-H226, with UACC-62 and with ACHN was > 100 µM (inactive) in each case. Also, the GI50 in the assay on SNB-75, in the assay on SNB-19, in the assay on EKVX, in the assay on K562, with NCI/ADR-RES and in the assay with U-251 was > 100 µM (inactive) in each case.

On to `N#Cc1c(N2CCCC2)nsc1Nc1ccccc1`, for which the GI50 with M14, in the assay on HT-29, in the assay with NCI-H460, in the assay on A549, in the assay with SF-268 and in the assay with OVCAR-5 was > 100 µM (inactive) in each case. The GI50 with 786-0, with NCI-H226, with ACHN, in the assay with SNB-75, with SNB-19 and in the assay on EKVX was > 100 µM (inactive) in each case. The GI50 in the assay with K562 and in the assay with NCI/ADR-RES was > 100 µM (inactive) in each case.

Take `O=C(NC1C(=O)NNC1c1ccccc1Cl)c1ccccc1` (stereo not given): the GI50 in the assay on M14 is > 100 µM (inactive); in the assay with HT-29, > 100 µM (inactive); in the assay on NCI-H522 it was 91.4 µM (inactive); in the assay with NCI-H460, > 100 µM (inactive); with OVCAR-3, > 100 µM (inactive); in the assay with A549, > 100 µM (inactive). Besides, the GI50 was > 100 µM (inactive) in the assay on SF-268; > 100 µM (inactive) in the assay on OVCAR-5; > 100 µM (inactive) in the assay on 786-0; 83 µM (inactive) in the assay with NCI-H226; > 100 µM (inactive) in the assay on UACC-62; > 100 µM (inactive) with ACHN. Further, the GI50 with SNB-75 is > 100 µM (inactive); in the assay with SNB-19 it was > 100 µM (inactive); with EKVX, > 100 µM (inactive); with K562, 39.4 µM (inactive); in the assay on U-251, > 100 µM (inactive).

For `COc1ccc2c3c([nH]c2c1)CCN(Cc1ccccc1)C3`, the GI50 was 16.2 µM (inactive) in the assay on M14; 27.2 µM (inactive) in the assay with HT-29; 23.6 µM (inactive) with MDA-MB-435; 17 µM (inactive) with NCI-H460; 62.1 µM (inactive) in the assay with A549; > 100 µM (inactive) in the assay on SF-268. Besides, the GI50 is 21 µM (inactive) in the assay on OVCAR-5; > 10 µM (inactive) in the assay on 786-0; 22.3 µM (inactive) with NCI-H226; 31.8 µM (inactive) in the assay on UACC-62; 31.3 µM (inactive) in the assay on ACHN; 37.3 µM (inactive) in the assay with SNB-75. Also, the GI50 in the assay with SNB-19 was 21.4 µM (inactive); with EKVX, 42.8 µM (inactive); in the assay on K562, 21.4 µM (inactive); in the assay with NCI/ADR-RES, 31.5 µM (inactive); with U-251, 22.5 µM (inactive).

As to `O=C(Cc1ccc(Cl)c(Cl)c1)NCC1(N2CCCCC2)CCCCC1`, the GI50 in the assay with M14 was 18.3 µM (inactive); in the assay with HT-29, 26.1 µM (inactive); in the assay on NCI-H522 it was 38 µM (inactive); in the assay on MDA-MB-435, 46.3 µM (inactive); with NCI-H460, 36.8 µM (inactive); in the assay with OVCAR-3, 86.5 µM (inactive). Besides, the GI50 is 41.4 µM (inactive) in the assay with A549; 85.3 µM (inactive) with SF-268; 47.1 µM (inactive) with OVCAR-5; 39.3 µM (inactive) in the assay with 786-0; 20.2 µM (inactive) in the assay on UACC-62; > 100 µM (inactive) in the assay with ACHN. The GI50 in the assay with SNB-19 was > 100 µM (inactive); in the assay with EKVX it was 59.8 µM (inactive); in the assay on K562, 50.1 µM (inactive); in the assay with NCI/ADR-RES, 93.5 µM (inactive); in the assay with U-251, 69.3 µM (inactive).

Take `N#CC1(C#N)C2CCCCC23OC(=N)C1(C#N)C(c1ccccc1)O3` (stereo not given): the GI50 with M14 is 12.7 µM (inactive); in the assay on HT-29, 18.2 µM (inactive); in the assay with MDA-MB-435, 25.6 µM (inactive); in the assay on NCI-H460, 19 µM (inactive); with OVCAR-3 it was 13.6 µM (inactive); in the assay on A549, > 100 µM (inactive). For the same molecule, the GI50 was 2.49 µM (inactive) with SF-268; 21.2 µM (inactive) with OVCAR-5; 14.6 µM (inactive) in the assay with 786-0; > 100 µM (inactive) in the assay with NCI-H226; 17.9 µM (inactive) in the assay with UACC-62; 36.1 µM (inactive) with ACHN. Besides, the GI50 is 0.213 µM (active) in the assay on SNB-75; 45.9 µM (inactive) in the assay with SNB-19; 23.5 µM (inactive) with EKVX; 7.11 µM (inactive) in the assay on K562; 41.5 µM (inactive) in the assay with NCI/ADR-RES; 17.6 µM (inactive) in the assay with U-251.

For `OC(CC1SCCCS1)c1ccccc1` (stereo not given), the GI50 in the assay with M14 is > 100 µM (inactive); in the assay on HT-29, > 100 µM (inactive); in the assay on NCI-H522, 61.7 µM (inactive); in the assay with NCI-H460 it was > 100 µM (inactive); in the assay with OVCAR-3, > 100 µM (inactive); with A549, > 100 µM (inactive). In addition, the GI50 with SF-268, in the assay with OVCAR-5, in the assay on 786-0, in the assay with NCI-H226, with UACC-62 and in the assay on ACHN was > 100 µM (inactive) each time. The GI50 in the assay with SNB-75, with SNB-19, in the assay on EKVX, in the assay with K562 and in the assay on U-251 was > 100 µM (inactive) throughout.

Consider `CN(C)CCNC(=O)c1nc([N+](=O)[O-])cn1C`, for which the GI50 in the assay on M14, in the assay with HT-29, with NCI-H522, in the assay with MDA-MB-435, in the assay on NCI-H460 and in the assay with OVCAR-3 was > 100 µM (inactive) each time. Also, the GI50 with A549, in the assay on SF-268, in the assay with OVCAR-5, with 786-0, with UACC-62 and with ACHN was > 100 µM (inactive) in each case. Moreover, the GI50 with SNB-75, with SNB-19, in the assay on K562, with NCI/ADR-RES and in the assay on U-251 was > 100 µM (inactive) throughout.

As for `CN1CCN(C(=S)N(C(=O)c2ccc(Cl)cc2)C2CCCCC2)CC1`, the GI50 in the assay with M14, in the assay on HT-29, in the assay with NCI-H522, in the assay with MDA-MB-435, in the assay with NCI-H460 and in the assay with OVCAR-3 was > 100 µM (inactive) each time. For the same molecule, the GI50 in the assay on A549, with SF-268, in the assay on OVCAR-5, in the assay on 786-0, in the assay with NCI-H226 and in the assay with UACC-62 was > 100 µM (inactive) in each case. In addition, the GI50 is > 100 µM (inactive) in the assay on ACHN; 20 µM (inactive) in the assay with SNB-75; > 100 µM (inactive) with SNB-19; 51.3 µM (inactive) with K562; > 100 µM (inactive) with U-251.

For `C[C@@H](NC(C#N)c1ccco1)c1ccccc1` (stereo not given in full), the GI50 in the assay with M14, with HT-29, in the assay on MDA-MB-435, in the assay on NCI-H460, with OVCAR-3 and with A549 was > 100 µM (inactive) throughout. In addition, the GI50 in the assay with SF-268, with OVCAR-5, in the assay on 786-0, with NCI-H226, in the assay with UACC-62 and in the assay on ACHN was > 100 µM (inactive) throughout. The GI50 with SNB-75, with SNB-19, with EKVX, in the assay on K562, with NCI/ADR-RES and in the assay with U-251 was > 100 µM (inactive) each time.

As for `Nc1ccc2c(c1)Cc1ccccc1-2`, the GI50 is > 100 µM (inactive) in the assay on M14; > 100 µM (inactive) in the assay with HT-29; > 100 µM (inactive) in the assay with MDA-MB-435; 69.8 µM (inactive) with NCI-H460; 45.4 µM (inactive) with OVCAR-3; 65 µM (inactive) with A549. Further, the GI50 is > 100 µM (inactive) in the assay with OVCAR-5; > 100 µM (inactive) in the assay with 786-0; > 100 µM (inactive) in the assay with NCI-H226; 59.4 µM (inactive) in the assay on UACC-62; 95.1 µM (inactive) in the assay with ACHN; 31.6 µM (inactive) in the assay on SNB-75. Moreover, the GI50 in the assay on SNB-19 was > 100 µM (inactive); in the assay on EKVX it was 37.1 µM (inactive); in the assay with K562, 84.1 µM (inactive); with NCI/ADR-RES, > 100 µM (inactive); in the assay on U-251, > 100 µM (inactive).
